According to patent publication US20090203610A1, “METHODS OF TREATING OBESITY OR DIABETES USING NT-4/5” (RINAT NEUROSCIENCE CORPORATION, priority 2004, published 2009):

How the values were obtained:
Assay type in all cases: in vivo
[1] = tested on: db/db mice; experiment: Blood triglyceride levels in db/db mice (Example 1); conditions: NT-4/5 20 mg/kg s.c., Rosiglitazone 3 mg/kg p.o.
Experimental: Test animals: 24 female 10-12 weeks old db/db mice (C57BL/Ks J Rj-db/db, Janvier, France), weighing in the target range of 40-50 g, were used in this study. […] Upon receipt at animal facilities, they were housed 4 per cage covered with filtered caps and at least a 5-day acclimation period was observed.
The mice were divided into three groups of 8 mice each (groups 1-3). Each group was treated with vehicle (PBS) subcutaneously (s.c.), 3 mg/kg Rosiglitazone orally (p.o.), or 20 mg/kg NT-4/5 subcutaneously (s.c.). From day 1 to day 5 (T1-T5) and then from day 8 to day 12 (T8-T12), the mice in groups 2 and 3 were dosed once daily for 5 consecutive days, with a volume of 10 ml/kg.
Collection of samples for analysis: One day before beginning the treatment (T0), non fasted db/db mice were weighed and blood samples were collected through the retro-orbital plexus (about 300 μL/mouse) under isoflurane anesthesia. Similarly, at day 5 (T5), day 12 (T12), day 19 (T19) and day 26 (T26), two hours after the last administration, blood samples were collected through the retro-orbital plexus under isoflurane anesthesia in non fasted mice. […] An aliquot of serum was used for measuring glucose levels, the remaining was frozen until use.
Analysis of blood samples in db/db mice: Pre- and post dose serum levels of glucose, HbA1c, cholesterol and triglycerides, insulin, and non esterified fatty acids (NEFA), as well as aspirate amino-transferase (AST) and alanine amino-transferase activities (ALT) activities, were determined at different time points, as described further herein. At each time point and for each parameter, a mean % of the effect was calculated according to the following formula: ((T final−T initial)/T initial)*100. Statistical analysis was consistent in a one-way analysis of variance followed by multiple comparisons versus the vehicle group (Dunnett's test) on final values. In case the equal variance test fails, a Kruskall-Wallis one-way analysis of variance on ranks was conducted. A difference was considered significant for p<0.05.

[2] = tested on: db/db mice; experiment: Blood insulin level by ELISA in db/db mice (Example 1); conditions: NT-4/5 20 mg/kg s.c., Rosiglitazone 3 mg/kg p.o.
Experimental: (§1) A difference was considered significant for p<0.05.
The blood insulin level was determined by ELISA using an Insulin ELIT Plus kit (ref. INSRAT01-8N, Eurobio, France).

[3] = tested on: db/db mice; experiment: Serum nonesterified fatty acids (NEFA) in db/db mice (Example 1); conditions: NT-4/5 20 mg/kg s.c., Rosiglitazone 3 mg/kg p.o.
Experimental: as §1
Serum nonesterified fatty acids (NEFA) levels were determined by calorimetric method using a non esterified fatty acids kit (ref. FA 15, Randox, France).

[4] = tested on: db/db mice; experiment: HbA1c in db/db mice (Example 1)
Experimental: as §1
HbA1c levels were determined using an HbA1c kit (ref. 650262, Beckman Coulter, France) and a Synchron CX4 synchronizer. HbA1c is an indicator for blood glucose control over the last 2-3 months. The normal level of HbA1c in C57BL/6J mouse (determined by measuring 8 normal healthy C57BL/6J mice) was about 3.5%.

[5] = tested on: db/db mice; experiment: Body weight of db/db mice (Example 1); conditions: NT-4/5 20 mg/kg s.c., Rosiglitazone 3 mg/kg p.o.
Experimental: Throughout the experiment period (T1-T26), daily individual body weights as well as food intake per cage were measured.

**Q.** How did the “triglycerides levels T0” value ([1]; day 0, before treatment) turn out when `CN(CCOc1ccc(CC2SC(=O)NC2=O)cc1)c1ccccn1` (stereo not shown) [Rosiglitazone, reference compound] was run?
**A.** 1.39 mM

**Q.** What about the “triglycerides levels T5” value ([1]; day 5) of the same molecule?
**A.** 0.81 mM

**Q.** What about the “triglycerides % effect T5-T0” value ([1]; day 5 vs day 0) of the same molecule?
**A.** −30.1%

**Q.** And the “triglycerides levels T12” value ([1]; day 12)?
**A.** 0.61 mM

**Q.** What about the “triglycerides % effect T12-T0” value ([1]; day 12 vs day 0) of the same molecule?
**A.** −51.0%

**Q.** And the “triglycerides levels T19” value ([1]; day 19)?
**A.** 0.64 mM

**Q.** And the “triglycerides % effect T19-T0” value ([1]; day 19 vs day 0)?
**A.** −46.1%

**Q.** What about the “triglycerides levels T26” value ([1]; day 26) of the same molecule?
**A.** 1.58 mM

**Q.** What about the “triglycerides % effect T26-T0” value ([1]; day 26 vs day 0) of the same molecule?
**A.** 23.4%

**Q.** What about the “insulin levels T0” value ([2]; day 0, before treatment) of the same molecule?
**A.** 6.93 nM

**Q.** And the “insulin levels T5” value ([2]; day 5)?
**A.** 3.94 nM

**Q.** And the “insulin % effect T5-T0” value ([2]; day 5 vs day 0)?
**A.** −37.0%

**Q.** What about the “insulin levels T12” value ([2]; day 12) of the same molecule?
**A.** 2.85 nM

**Q.** What about the “insulin % effect T12-T0” value ([2]; day 12 vs day 0) of the same molecule?
**A.** −51.8%

**Q.** What about the “insulin levels T19” value ([2]; day 19) of the same molecule?
**A.** 7.30 nM

**Q.** What about the “insulin % effect T19-T0” value ([2]; day 19 vs day 0) of the same molecule?
**A.** 14.4%

**Q.** And the “insulin levels T26” value ([2]; day 26)?
**A.** 6.33 nM

**Q.** And the “insulin % effect T26-T0” value ([2]; day 26 vs day 0)?
**A.** −5.7%

**Q.** What about the “NEFA levels T0” value ([3]; day 0, before treatment) of the same molecule?
**A.** 0.782 mM

**Q.** What about the “NEFA levels T5” value ([3]; day 5) of the same molecule?
**A.** 0.507 mM

**Q.** What about the “NEFA % effect T5-T0” value ([3]; day 5 vs day 0) of the same molecule?
**A.** −32.8%

**Q.** What about the “NEFA levels T12” value ([3]; day 12) of the same molecule?
**A.** 0.444 mM

**Q.** What about the “NEFA % effect T12-T0” value ([3]; day 12 vs day 0) of the same molecule?
**A.** −39.9%

**Q.** And the “NEFA levels T19” value ([3]; day 19)?
**A.** 0.739 mM

**Q.** And the “NEFA % effect T19-T0” value ([3]; day 19 vs day 0)?
**A.** −2.2%

**Q.** And the “NEFA levels T26” value ([3]; day 26)?
**A.** 0.345 mM

**Q.** What about the “NEFA % effect T26-T0” value ([3]; day 26 vs day 0) of the same molecule?
**A.** −53.7%

**Q.** And the “HbA1c level decrease at T12” value ([4]; T12 vs T0)?
**A.** 1%

**Q.** What about the “HbA1c level decrease at T26” value ([4]; T26 as compared to T0) of the same molecule?
**A.** 9.6%

**Q.** And the “HbA1c T0” value ([4]; day 0, before treatment, NT-4/5 20 mg/kg s.c., Rosiglitazone 3 mg/kg p.o.)?
**A.** 5.74%

**Q.** What about the “HbA1c T12” value ([4]; day 12, NT-4/5 20 mg/kg s.c., Rosiglitazone 3 mg/kg p.o.) of the same molecule?
**A.** 5.69%

**Q.** And the “HbA1c % effect T12-T0” value ([4]; day 12 vs day 0, NT-4/5 20 mg/kg s.c., Rosiglitazone 3 mg/kg p.o.)?
**A.** −1.0%

**Q.** And the “HbA1c T26” value ([4]; day 26, NT-4/5 20 mg/kg s.c., Rosiglitazone 3 mg/kg p.o.)?
**A.** 5.18%

**Q.** What about the “HbA1c % effect T26-T0” value ([4]; day 26 vs day 0, NT-4/5 20 mg/kg s.c., Rosiglitazone 3 mg/kg p.o.) of the same molecule?
**A.** −9.6%

**Q.** What about the “body weight, mean” value ([5]; Day 0) of the same molecule?
**A.** 42.3 g

**Q.** What about the “body weight expressed as % of baseline, mean” value (“body weight expressed as %” below) ([5]; Day 1) of the same molecule?
**A.** 98.3 % of baseline

**Q.** And the “body weight, mean” value ([5]; Day 1)?
**A.** 41.6 g

**Q.** And the “body weight expressed as %” value ([5]; Day 2)?
**A.** 99.5 % of baseline

**Q.** And the “body weight, mean” value ([5]; Day 2)?
**A.** 42.1 g

**Q.** What about the “body weight expressed as %” value ([5]; Day 3) of the same molecule?
**A.** 100.0 % of baseline

**Q.** And the “body weight, mean” value ([5]; Day 3)?
**A.** 42.3 g

**Q.** What about the “body weight expressed as %” value ([5]; Day 4) of the same molecule?
**A.** 100.8 % of baseline

**Q.** What about the “body weight, mean” value ([5]; Day 4) of the same molecule?
**A.** 42.7 g

**Q.** What about the “body weight expressed as %” value ([5]; Day 5) of the same molecule?
**A.** 102.2 % of baseline

**Q.** What about the “body weight, mean” value ([5]; Day 5) of the same molecule?
**A.** 43.3 g

**Q.** And the “body weight expressed as %” value ([5]; Day 6)?
**A.** 100.6 % of baseline

**Q.** What about the “body weight, mean” value ([5]; Day 6) of the same molecule?
**A.** 42.6 g

**Q.** And the “body weight expressed as %” value ([5]; Day 7)?
**A.** 101.1 % of baseline

**Q.** What about the “body weight, mean” value ([5]; Day 7) of the same molecule?
**A.** 42.8 g

**Q.** What about the “body weight expressed as %” value ([5]; Day 8) of the same molecule?
**A.** 102.3 % of baseline

**Q.** What about the “body weight, mean” value ([5]; Day 8) of the same molecule?
**A.** 43.3 g

**Q.** And the “body weight expressed as %” value ([5]; Day 9)?
**A.** 103.8 % of baseline

**Q.** What about the “body weight, mean” value ([5]; Day 9) of the same molecule?
**A.** 43.9 g

**Q.** What about the “body weight expressed as %” value ([5]; Day 10) of the same molecule?
**A.** 104.2 % of baseline

**Q.** What about the “body weight, mean” value ([5]; Day 10) of the same molecule?
**A.** 44.1 g

**Q.** What about the “body weight expressed as %” value ([5]; Day 11) of the same molecule?
**A.** 104.9 % of baseline

**Q.** And the “body weight, mean” value ([5]; Day 11)?
**A.** 44.4 g

**Q.** What about the “body weight expressed as %” value ([5]; Day 12) of the same molecule?
**A.** 106.3 % of baseline

**Q.** And the “body weight, mean” value ([5]; Day 12)?
**A.** 45.0 g

**Q.** And the “body weight expressed as %” value ([5]; Day 13)?
**A.** 104.9 % of baseline

**Q.** And the “body weight, mean” value ([5]; Day 13)?
**A.** 44.4 g
